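Briefly, cells in 96-well plates were exposed to five compound concentrations for 48 h, and endpoints were estimated by linear interpolation. GI50: concentration for 50% inhibition of growth.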 Calls of active or inactive are those of the source. No stated cut-off is given here; in the data, active = GI50 up to about 1.1 µM and inactive = higher. Where a SMILES comes first, the peptide text is derived from it. [ ]: non-standard residue; d: D form. The star is where a group is joined. ξ: configuration not given here. X4 = COc1ccc(C(N*)c2ccc(OC)cc2)cc1; NMeF = CN[C@@H](Cc1ccccc1)C(=O)O; NMeD = CN[C@@H](CC(=O)O)C(=O)O; NMeV = CN[C@H](C(=O)O)C(C)C; ξNMeV = CNC(C(=O)O)C(C)C; Boc = CC(C)(C)OC(=O)*; ξNMeA = CNC(C)C(=O)O; ξV = CC(C)C(N)C(=O)O
What was measured:
Assay in all cases: NCI anticancer screen, dose series, 48 h
CAKI-1 = system: CAKI-1
NCI-H23 = system: NCI-H23
SN12C = system: SN12C
NCI-H522 = system: NCI-H522
MDA-MB-435 = system: MDA-MB-435
MDA-MB-231 = system: MDA-MB-231
DLD-1 = system: DLD-1
T47D = system: T47D
DMS-273 = system: DMS-273
SK-MEL-5 = system: SK-MEL-5
XF498 = system: XF498
HOP-92 = system: HOP-92
PC-3 = system: PC-3
DU-145 = system: DU-145
COLO 205 = system: COLO 205
SF-295 = system: SF-295
ACHN = system: ACHN
RPMI-8226 = system: RPMI-8226
IGROV-1 = system: IGROV-1
RXF 393 = system: RXF 393

Compound: COc1ccc(C(NC(=O)C[C@@H](C(=O)N(C)C(C)C(=O)O)N(C)C(=O)[C@@H]2CCCN2C(=O)[C@H](C(C)C)N(C)C(=O)C(C(C)C)N(C)C(=O)[C@H](Cc2ccccc2)N(C)C(=O)C(NC(=O)OC(C)(C)C)C(C)C)c2ccc(OC)cc2)cc1 (stereo partly drawn) (Boc-[ξV][NMeF][ξNMeV][NMeV]P[NMeD](X4)[ξNMeA]-OH)
- GI50 (CAKI-1): 29.6 µM (inactive)
- GI50 (NCI-H23): 10.4 µM (inactive)
- GI50 (SN12C): 25.5 µM (inactive)
- GI50 (NCI-H522): 11.5 µM (inactive)
- GI50 (MDA-MB-435): 9.1 µM (inactive)
- GI50 (MDA-MB-231): 11.3 µM (inactive)
- GI50 (DLD-1): 18 µM (inactive)
- GI50 (T47D): 11.9 µM (inactive)
- GI50 (DMS-273): 17.2 µM (inactive)
- GI50 (SK-MEL-5): 6.52 µM (inactive)
- GI50 (XF498): 15.8 µM (inactive)
- GI50 (HOP-92): 8.26 µM (inactive)
- GI50 (PC-3): 13.7 µM (inactive)
- GI50 (DU-145): 25.9 µM (inactive)
- GI50 (COLO 205): 20.4 µM (inactive)
- GI50 (SF-295): 18.9 µM (inactive)
- GI50 (ACHN): 36.9 µM (inactive)
- GI50 (RPMI-8226): 8.24 µM (inactive)
- GI50 (IGROV-1): 8.43 µM (inactive)
- GI50 (RXF 393): 7.5 µM (inactive)

Compound: C/C(=C1/N=C(c2cc([N+](=O)[O-])ccc2Cl)N(c2cccc(C)c2)C1=O)c1cc2ccccc2oc1=O
- GI50 (CAKI-1): > 100 µM (inactive)
- GI50 (NCI-H23): 35.2 µM (inactive)
- GI50 (SN12C): > 100 µM (inactive)
- GI50 (NCI-H522): 13.6 µM (inactive)
- GI50 (DLD-1): 31.7 µM (inactive)
- GI50 (DMS-273): 80.7 µM (inactive)
- GI50 (SK-MEL-5): 14 µM (inactive)
- GI50 (XF498): 21 µM (inactive)
- GI50 (HOP-92): 76.2 µM (inactive)
- GI50 (COLO 205): 45.3 µM (inactive)
- GI50 (SF-295): > 100 µM (inactive)
- GI50 (ACHN): 48.8 µM (inactive)
- GI50 (RPMI-8226): 20.4 µM (inactive)
- GI50 (IGROV-1): 45.1 µM (inactive)
- GI50 (RXF 393): 59.6 µM (inactive)

Compound: O=C(CCCCCCCCCCc1ccccc1)c1c(O)cccc1O
- GI50 (CAKI-1): 29.5 µM (inactive)
- GI50 (NCI-H23): 18.9 µM (inactive)
- GI50 (SN12C): 18.7 µM (inactive)
- GI50 (NCI-H522): 21.4 µM (inactive)
- GI50 (DLD-1): 21.3 µM (inactive)
- GI50 (DMS-273): 18.2 µM (inactive)
- GI50 (SK-MEL-5): 16.1 µM (inactive)
- GI50 (XF498): 20.2 µM (inactive)
- GI50 (HOP-92): 23.5 µM (inactive)
- GI50 (COLO 205): 23.8 µM (inactive)
- GI50 (SF-295): 21.3 µM (inactive)
- GI50 (ACHN): 28.1 µM (inactive)
- GI50 (RPMI-8226): 34.7 µM (inactive)
- GI50 (IGROV-1): 26.5 µM (inactive)
- GI50 (RXF 393): 19.4 µM (inactive)

Compound: Cc1c(CNc2ccc(C(=O)NC(CC(=O)O)C(=O)O)cc2)ccc2nc(N)nc(N)c12 (stereo not drawn)
- GI50 (NCI-H23): < 0.018 µM (active)
- GI50 (SN12C): 0.0499 µM (active)
- GI50 (NCI-H522): < 0.018 µM (active)
- GI50 (MDA-MB-435): < 0.01 µM (active)
- GI50 (MDA-MB-231): > 100 µM (inactive)
- GI50 (DLD-1): < 0.01 µM (active)
- GI50 (T47D): > 100 µM (inactive)
- GI50 (DMS-273): < 0.01 µM (active)
- GI50 (SK-MEL-5): 0.021 µM (active)
- GI50 (XF498): 68.1 µM (inactive)
- GI50 (HOP-92): 1.1 µM (active)
- GI50 (PC-3): 13.4 µM (inactive)
- GI50 (DU-145): < 0.01 µM (active)
- GI50 (COLO 205): > 9.42 µM (inactive)
- GI50 (SF-295): < 0.0106 µM (active)
- GI50 (ACHN): < 0.01 µM (active)
- GI50 (RPMI-8226): < 0.0182 µM (active)
- GI50 (IGROV-1): < 0.01 µM (active)
- GI50 (RXF 393): 5.04 µM (inactive)

Compound: CCCCCCCCCCCCCCCC(=O)OCC1OC(OC)C(NC(=O)N(CCCl)N=O)C(O)C1O (stereo not drawn)
- GI50 (CAKI-1): 14.5 µM (inactive)
- GI50 (NCI-H23): 11.5 µM (inactive)
- GI50 (SN12C): 13.4 µM (inactive)
- GI50 (NCI-H522): 15.9 µM (inactive)
- GI50 (MDA-MB-435): 16.7 µM (inactive)
- GI50 (MDA-MB-231): 17.9 µM (inactive)
- GI50 (DLD-1): 14.7 µM (inactive)
- GI50 (DMS-273): 10.2 µM (inactive)
- GI50 (SK-MEL-5): 21.1 µM (inactive)
- GI50 (XF498): 7.66 µM (inactive)
- GI50 (HOP-92): 17.4 µM (inactive)
- GI50 (PC-3): 15.7 µM (inactive)
- GI50 (DU-145): 19.5 µM (inactive)
- GI50 (COLO 205): 19.2 µM (inactive)
- GI50 (SF-295): 4.48 µM (inactive)
- GI50 (ACHN): 13.4 µM (inactive)
- GI50 (RPMI-8226): 21.3 µM (inactive)
- GI50 (IGROV-1): 18.1 µM (inactive)
- GI50 (RXF 393): 16.7 µM (inactive)

Compound: COC(=O)c1c(CC(=O)OC(C)C)cc2n(c1=O)Cc1c-2nc2ccccc2c1OC
- GI50 (CAKI-1): > 100 µM (inactive)
- GI50 (NCI-H23): > 100 µM (inactive)
- GI50 (SN12C): > 100 µM (inactive)
- GI50 (NCI-H522): > 100 µM (inactive)
- GI50 (DLD-1): > 100 µM (inactive)
- GI50 (DMS-273): > 100 µM (inactive)
- GI50 (SK-MEL-5): > 100 µM (inactive)
- GI50 (XF498): > 100 µM (inactive)
- GI50 (HOP-92): 45.6 µM (inactive)
- GI50 (COLO 205): > 100 µM (inactive)
- GI50 (SF-295): > 100 µM (inactive)
- GI50 (ACHN): > 100 µM (inactive)
- GI50 (RPMI-8226): 59 µM (inactive)
- GI50 (IGROV-1): 83.9 µM (inactive)
- GI50 (RXF 393): 26.4 µM (inactive)

Compound: O=C1c2c(n(Cc3ccccc3)c(=O)n2Cc2ccccc2)C(=O)N1Cc1ccccc1
- GI50 (CAKI-1): 65.8 µM (inactive)
- GI50 (NCI-H23): 38.6 µM (inactive)
- GI50 (SN12C): 65.5 µM (inactive)
- GI50 (NCI-H522): 56.1 µM (inactive)
- GI50 (DLD-1): 63 µM (inactive)
- GI50 (DMS-273): 31.4 µM (inactive)
- GI50 (SK-MEL-5): 50.5 µM (inactive)
- GI50 (XF498): 16.4 µM (inactive)
- GI50 (HOP-92): > 100 µM (inactive)
- GI50 (COLO 205): > 100 µM (inactive)
- GI50 (SF-295): 72.3 µM (inactive)
- GI50 (ACHN): 91.6 µM (inactive)
- GI50 (RPMI-8226): 22.8 µM (inactive)
- GI50 (IGROV-1): 93.5 µM (inactive)
- GI50 (RXF 393): 37.9 µM (inactive)

Compound: Clc1ncnc2c1ncn2CCCCCCCCCCCCn1cnc2c(Cl)ncnc21
- GI50 (CAKI-1): 3.4 µM (inactive)
- GI50 (NCI-H23): 2.49 µM (inactive)
- GI50 (SN12C): 18.6 µM (inactive)
- GI50 (NCI-H522): 1.48 µM (inactive)
- GI50 (DLD-1): 7.94 µM (inactive)
- GI50 (DMS-273): 2.71 µM (inactive)
- GI50 (SK-MEL-5): 4.83 µM (inactive)
- GI50 (XF498): 9.38 µM (inactive)
- GI50 (HOP-92): 5.24 µM (inactive)
- GI50 (COLO 205): 15.6 µM (inactive)
- GI50 (SF-295): 15.4 µM (inactive)
- GI50 (ACHN): 14.5 µM (inactive)
- GI50 (RPMI-8226): 2.13 µM (inactive)
- GI50 (IGROV-1): 4.69 µM (inactive)
- GI50 (RXF 393): 16.8 µM (inactive)

Compound: c1ccc([P+](CCC[P+](c2ccccc2)(c2ccccc2)c2ccccc2)(c2ccccc2)c2ccccc2)cc1
- GI50 (CAKI-1): > 100 µM (inactive)
- GI50 (NCI-H23): 25.2 µM (inactive)
- GI50 (SN12C): 33.3 µM (inactive)
- GI50 (NCI-H522): 19.5 µM (inactive)
- GI50 (DLD-1): 56.6 µM (inactive)
- GI50 (DMS-273): 9.91 µM (inactive)
- GI50 (SK-MEL-5): 20.2 µM (inactive)
- GI50 (XF498): 23.7 µM (inactive)
- GI50 (HOP-92): 20.1 µM (inactive)
- GI50 (COLO 205): 21.8 µM (inactive)
- GI50 (SF-295): 31.3 µM (inactive)
- GI50 (ACHN): > 100 µM (inactive)
- GI50 (RPMI-8226): 7.38 µM (inactive)
- GI50 (IGROV-1): 41.7 µM (inactive)
- GI50 (RXF 393): 64.4 µM (inactive)

Reference: ChEMBL document CHEMBL1201862, “PubChem BioAssay data set” (2004)
